This assay is described as follows: Removal (oxidation) of Carbamazepine (CBZ) by ferrate with or without amino acids, HPLC. To be noted: [ferrate]=100.0 μM.

The source of these data is patent US12635693B2, “Activated ferrate compositions and methods” (THE TEXAS A&M UNIVERSITY SYSTEM, priority 2020, dated 2026).

Description: (Experimental conditions: [CBZ]=5.0 μM, [ferrate]=100.0 μM, [amino acid]=100.0 μM, pH 9.0 (10.0 mM borate buffer), reaction time=1 min).
After certain reaction time, a 20.0 μL NH2OH solution (1 M, [NH2OH]: [ferrate]=10.0) was added to quench the reactions. Samples were transferred into high performance liquid chromatography (HPLC) vials and subsequently analyzed using the HPLC method. Each treatment was performed with triplicates and the mean removal values were reported.
Preliminary experiments were conducted to see the influence of amino acids (100.0 μM) on removal of CBZ (5.0 μM) by ferrate (100.0 μM) at pH 9.0 (10.0 mM borate buffer) after 1 min of oxidation. In these experiments, the solution of selected amino acids (FIG. 1) was mixed with CBZ, followed by addition of ferrate.

Take `[O]=[Fe](=[O])([O-])[O-]` [ferrate]: where the note is “ferrate only (without proline), [CBZ]=5.0 μM, pH 9.0 (10.0 mM borate buffer), 80 min”, the “removal of CBZ” value is reported as 70%.
Take `O=C(O)[C@@H]1CCCN1` [proline]: under “molar ratio of proline to ferrate 1.0, within 90 s, pH 9.0”, the “oxidation of CBZ” value was 100%.
